Assays:
Format in all cases: cell-based
NB4 cells = assay: Growth assay, viable cells by trypan blue exclusion, NB4; settings: NB4, 100 μM trolox alone, any time point
Experimental: NB4, IM9 and AsR2 cells were seeded at 1×10^5 cells/ml in 24-well plates. Cells were treated with various concentrations of As2O3 or doxorubicin, alone or in combination with 100 μM trolox for six days. Viable cells were counted by trypan blue exclusion on day 1, 3 and 6. All cells were maintained at a density lower than 1×10^6 cells/ml through dilution as required, and media +/− treatment was replaced every third day. MCF-7, MDA-231 and T47D were seeded in 24-well plates at a density of 4000 cells/well. The next day, fresh media containing As2O3+/− trolox was added. On the days indicated, cells were fixed in 10% trichloroacetic acid and subsequently stained with sulforhodamine B (SRB). Bound SRB was solubilized in 10 mM unbuffered Tris and optical density was measured at 570 nm in a microplate reader.

NB4, AsR2 and IM9 cells = assay: Apoptosis by propidium iodide staining and flow cytometry; settings: 48 hours, all concentrations of arsenic tested
Experimental: Quantitation of apoptotic cells was performed as previously described (Hardin et al. J. Immunol. Methods. 1992; 154:99-107). Cells were treated, washed in buffer (PBS/5% FBS/0.01 M NaN3) at 4° C., pelleted, and resuspended in 0.5 ml of hypotonic fluorochrome solution containing 50 μg/ml propidium iodide (PI), 0.1% sodium citrate, and 0.1% Triton X-100™. Fluorescence was measured on a Becton-Dickinson™ FACS Calibur. Cells undergoing DNA fragmentation and apoptosis (those in which PI fluorescence was weaker than the typical G0-G1 cell cycle peak) were quantified using CellQUEST™ software.
To evaluate whether the growth inhibitory effect observed upon combined treatment of As2O3 and trolox in NB4, AsR2 and IM9 cells was due to the induction of apoptosis, cells were treated for 48 hours, subsequently stained with PI and analyzed by flow cytometry. […] To confirm an enhanced induction of apoptotic death, FITC-labeled Annexin V, which detects phosphatidylserine residues appearing on the external surface of early apoptotic cells, was used. Consistent with the increase in the subG0 subpopulation after PI staining, trolox augmented the percentage of cells positive for Annexin V (FIG. 2B lower panels). To further confirm the induction of apoptosis by the combination of As2O3 and trolox, we evaluated caspase 3 activation and PARP cleavage. […] Similar results were obtained with AsR2 and IM9 cells.

Normal human PBMC = assay: Colony forming unit assay of peripheral blood mononuclear cells
Experimental: Peripheral blood mononuclear cells (PBMC) were obtained from two healthy normal donors after obtaining informed consent and were collected into tubes containing 7.2 mg K2EDTA. The blood was diluted 1:3 in PBS, layered onto an equal volume of Ficoll-Plaque™ PLUS (Amershan Biosciences, Piscataway, N.J.) and centrifuged at 1500 rpm for 30 minutes. The mononuclear cell layer was collected and washed twice in PBS. Methylcellulose media was prepared by combining IMDM, 30% FBS, 1% bovine serum albumin, 10^−4M 2-mercaptoethanol, 2 mM L-glutamine, 0.1U penicillin, 0.1 μg/ml streptomycin, granulocyte-macrophage colony-stimulating factor (GM-CSF; 10 ng/ml), interleukin-3 (IL-3; 10 ng/ml0) and erythropoietin (EPO; 3U/ml). PBMC were seeded in this media at a concentration of 300,000 cells/ml and treated with or without As2O3, trolox or the combination. Cultures were performed in triplicate in 35 mm^2 dishes and incubated at 37° C. in 4% CO2. Colonies derived from […] (BFU-E) and CFU-GM were counted on day 7 and 13.

Heme oxygenase-1 (HO-1) = assay: HO-1 protein levels by Western blot; settings: NB4, IM9 and AsR2 cells, 24 hours
Experimental: Cell extracts were washed with cold PBS and resuspended in 0.1 ml lysis buffer (5 mM NaH2PO4, 1 mM DTT, 10% glycerol, 1 mM PMSF, 10 μg/ml each aprotinin and leupeptin, pH 7.4) at 4° C. Extracts were centrifuged at 14,000 rpm at 4° C., and supernatants were transferred to fresh tubes. Protein concentration was determined with the Bio-Rad™ protein assay (Bio-Rad, Mississauga, Ontario, Canada). To detect HO-1 or PARP, 50 μg of protein was added to an equal volume of 2× sample buffer and run on a 10% SDS-polyacrylamide gel. Proteins were transferred to nitrocellulose membranes (Bio-Rad), stained with Ponceau S in 5% acetic acid to ensure equal protein loading, and blocked with 5% milk in PBS containing 0.5% Triton X-100™ for 1 hour at room temperature. The membrane was hybridized overnight at 4° C. with antibody against PARP (1:1000; Oncogene) or 3 hours with an antibody against HO-1 (1:1000; StressGen). Following three washes with PBS and 0.5% Triton X-100™, blots were incubated with a goat anti-rabbit antibody (1:10,000; PharMingen) for one hour at room temperature. Bands were visualized by enhanced chemiluminescence (Amersham Pharmacia Biotech, Baie d'Urfe, Quebec, Canada). Immunostaining for β-actin was used to confirm equal protein loading. Immune complex kinase assays for c-jun kinase activity were performed as previously described (Davison et al. Blood. 2004; 103: 3496-3502).

Cc1c(C)c2c(c(C)c1O)CCC(C)(C(=O)O)O2 (stereo not shown) [trolox, Trolox]
effect on cell number (NB4 cells): no effect on cell number
apoptosis (PI staining) (NB4, AsR2 and IM9 cells): no effect on the apoptotic rate
colony formation (CFU-GM, BFU-E, CFU-E) (Normal human PBMC): did not inhibit colony formation
HO-1 protein induction (Heme oxygenase-1 (HO-1)): not detected

Reference: patent publication US8784899B2, “Compositions and methods for cancer treatment” (priority 2005, dated 2014)
